# Experimental data reported in patent publication US8114901B2, “Crystalline 2,5-dione-3-(1-methyl-1H-indol-3-yl)-4-[1-(pyridin-2-ylmethyl)piperidin-4-yl]-1H-indol-3-yl]-1H-pyrrole mono-hydrochloride” (Eli Lilly and Company, priority 2002, dated 2012).
# Several values for one entry are separate records, joined by “and”; a condition that tells them apart may be missing. Identical values can stand only once. Like-named read-outs stand apart in the source and are kept apart here.
# What was measured:
# [1] = test system: VEGF-stimulated proliferation of HUVEC cells; test: VEGF-stimulated proliferation of HUVEC cells in culture; assay type: cell-based; conditions: 72 hours of exposure
# Excerpt: (§1) The salt of the present invention is an inhibitor of vascular endothelial growth factor (VEGF)-induced angiogenesis. […] These assay systems are more fully described in WO 02/02116. The salt of the present invention is, thus, effective in treating cancer and inhibiting tumor growth.
# [2] = test system: VEGF-induced neo-angiogenesis; test: VEGF-induced neo-angiogenesis in the rat corneal micropocket; assay type: in vivo; conditions: administered orally for 10 days
# Excerpt: as §1
# [3] = Hygroscopicity / moisture sorption (weight gain vs RH); assay type: physicochemical
# Excerpt: The different water contents prompted an investigation into the moisture sorption characteristics of those lots of crystalline FB-HCl that were not anhydrous. […] Crystalline FB-HCl material capable of water sorption is hereafter referred to as “hygroscopic F-I”.
# [4] = Plasma pharmacokinetics after single oral gavage, cross-over design; assay type: in vivo; conditions: fed female beagle dogs; for AUC0-24 / AUC0-inf / Cmax: single oral 5 mg/kg by gavage, individual animals 1-6, 5 mg/kg
# Protocol: The 6 dogs were randomized into two treatment groups to receive single doses of FB Form I followed by a single dose of F-I two weeks later, or vice versa. On Days 1 and 14, 3 dogs received FB Form 1 and 3 dogs received F-I, and blood samples were collected at 0.5, 1, 2, 3, 4, 8, 12 and 24 hours post dosing. Concentrations of FB Form I were determined by liquid chromatography tandem mass spectrometry.
# [5] = Equilibrium solubility in aqueous media at ambient temperature, HPLC after 24 hours; assay type: physicochemical; conditions: for Amt Dissolved: 24 hours equilibration
# Protocol: Extensive equilibrium solubility determinations were undertaken for both hygroscopic and anhydrous F-I in a variety of aqueous media at ambient temperature. Additionally, the equilibrium solubility of FB Form I was measured at ambient temperature.
# [6] = Intrinsic dissolution of 100 mg compact; assay type: physicochemical; conditions: for % of 100 mg Compact Dissolved in 10 Minutes: Dissolution Medium 0.1 N HCl
# Protocol: To confirm that variability in the hygroscopicity of F-I lots should not adversely impact bioavailability, intrinsic dissolution rates were also measured for the hygroscopic and anhydrous F-I. For comparison purposes, the intrinsic dissolution rate of FB Form I was also measured.
# [7] = 0.01 N HCl, ambient temperature
# [8] = SIF, fed pH 5.0, ambient temperature
# [9] = pH 2.2 buffer, ambient temperature
Compound,hygroscopicity [3],Filtrate pH ([5]; 0.01 N HCl),"Amt Dissolved [5, 7]","Filtrate pH ([5]; SIF, fed pH 5.0)","Amt Dissolved [5, 8]",Filtrate pH ([5]; pH 2.2 buffer),"Amt Dissolved [5, 9]",dissolution of a 100 mg compact within 10 minutes [6],% of 100 mg Compact Dissolved in 10 Minutes [6],other results
Cl.Cn1cc(C2=C(c3cn(C4CCN(Cc5ccccn5)CC4)c4ccccc34)C(=O)NC2=O)c2ccccc21 [F-I],not significantly hygroscopic,–,–,–,–,–,–,–,–,inhibition of VEGF-stimulated proliferation of HUVEC cells [1]: potent inhibitor; inhibition of VEGF-induced neo-angiogenesis in the rat corneal micropocket [2]: highly effective inhibitor; weight gain ([3]; at 95% RH): < 2%; hygroscopicity ([3]; between 0-70% RH): relatively non-hygroscopic; plasma exposure (AUC 0 to 24 hr and 0 to infinity) compared with FB Form I ([4]; single oral 5 mg/kg): significantly higher; AUC0-24 ([4]; mono-hydrochloride): 3.5923 µM·h and 1.735 µM·h and 2.97 µM·h and 4.0644 µM·h and 6.1501 µM·h and 2.9445 µM·h; AUC0-inf ([4]; mono-hydrochloride): 3.8286 µM·h and 1.7984 µM·h and 3.0161 µM·h and 4.2008 µM·h and 6.6308 µM·h and 2.9983 µM·h; Cmax ([4]; mono-hydrochloride): 481 nM and 327 nM and 679 nM and 501 nM and 774 nM and 450 nM
Cn1cc(C2=C(c3cn(C4CCN(Cc5ccccn5)CC4)c4ccccc34)C(=O)NC2=O)c2ccccc21 [FB Form I],–,2.20,0.279 mg/mL and 0.355 mg/mL,4.94,0.073 mg/mL and 0.074 mg/mL,2.21,0.346 mg/mL and 0.336 mg/mL,> 10%,>30%,AUC0-24 [4]: 2.4431 µM·h and 0.3893 µM·h and 2.0924 µM·h and 3.4775 µM·h and 5.1195 µM·h and 2.2702 µM·h; AUC0-inf [4]: 2.5786 µM·h and 0.4006 µM·h and 2.1139 µM·h and 3.6031 µM·h and 5.3331 µM·h and 2.3063 µM·h; Cmax [4]: 336 nM and 99.8 nM and 532 nM and 600 nM and 552 nM and 718 nM
Cl.Cn1cc(C2=C(C3CCN(Cc4ccccn4)CC3)C(=O)NC2=O)c2ccccc21 [Hygroscopic F-I],–,2.25,0.046 mg/mL and 0.053 mg/mL,4.93,0.014 mg/mL and 0.015 mg/mL,2.26,0.324 mg/mL and 0.352 mg/mL,no appreciable dissolution,<<0.5%,maximum moisture sorption ([3]; at 40% RH): 1.6%
tartrate,only slightly hygroscopic,–,–,–,–,–,–,–,–,weight gain ([3]; at RH's up to 70%): ~1%
